Measurements reported in patent US9556237B2 (priority 2012, dated 2017).
Peptide text beside a SMILES is read from it.

Tested on: Vero E6 cells

Structure (SMILES): CSCC[C@H](N)C(=O)N[C@@H](Cc1ccccc1)C(=O)N[C@@H](CC(C)C)C(=O)NCC(=O)N[C@@H](Cc1c[nH]c2ccccc12)C(=O)N[C@@H](CO)C(=O)N[C@@H](Cc1ccccc1)C(=O)N[C@@H](CC(=O)O)C(=O)N[C@@H](Cc1ccccc1)C(=O)NCC(=O)N[C@@H](CO)C(=O)N[C@@H](CC(C)C)C(=O)N[C@@H](Cc1c[nH]c2ccccc12)C(=O)NCC(=O)N[C@@H](CC(N)=O)C(=O)N[C@@H](CCCCN)C(=O)N1CCC[C@H]1C(=O)N[C@@H](Cc1c[nH]c2ccccc12)C(=O)N[C@@H](Cc1ccccc1)C(=O)O [RVFV-6sc, MFLGWSFDFGSLWGNKPWF, reference compound] (H-MFLGWSFDFGSLWGNKPWF-OH)
- impact on cell proliferation (MTT assay): little negative impact on cell proliferation
